Measured values taken from BigSolDB 2.1.

C[C@]12C=CC(=O)C=C1CC[C@@H]1[C@@H]2[C@@H](O)C[C@@]2(C)[C@H]1CC[C@]2(O)C(=O)CO
solubility (mole fraction)
Conditions | in DMF | in NMP | in acetonitrile | in n-dodecane | in n-hexadecane | in n-nonanol | in n-octanol | in n-pentanol | in sec-butanol | in water
293.2 K | 0.00818 | 0.00465 | 0.00219 | 1.44e-05 | 2.15e-05 | 0.000507 | 0.000316 | 0.000283 | 0.000248 | 1.05e-05
298.2 K | 0.00869 | 0.00525 | 0.00236 | 1.64e-05 | 2.35e-05 | 0.000643 | 0.000419 | 0.000358 | 0.000294 | 1.1e-05
303.2 K | 0.00943 | 0.0061 | 0.00255 | 1.87e-05 | 2.61e-05 | 0.000833 | 0.000568 | 0.000449 | 0.000362 | 1.25e-05
308.2 K | 0.0101 | 0.00688 | 0.0028 | 2.16e-05 | 3.01e-05 | 0.000999 | 0.000712 | 0.000559 | 0.000444 | 1.4e-05
313.2 K | 0.0108 | 0.00784 | 0.00305 | 2.45e-05 | 3.4e-05 | 0.00126 | 0.000913 | 0.000699 | 0.00053 | 1.6e-05
318.2 K | 0.0116 | 0.00881 | 0.00334 | 2.79e-05 | 3.88e-05 | 0.00151 | 0.00114 | 0.000881 | 0.000628 | 1.8e-05
323.2 K | 0.0125 | 0.00998 | 0.00364 | 3.28e-05 | 4.5e-05 | 0.00179 | 0.00141 | 0.0011 | 0.00075 | 2e-05
328.2 K | 0.0141 | 0.0114 | 0.00407 | 3.82e-05 | 5.41e-05 | 0.00215 | 0.0018 | 0.00139 | 0.000905 | 2.6e-05
